Data: PubChem BioAssay AID1919008 (Molecular Pharmacology Branch, DTP, NCI, 2023)

System: DMS-114 complex spheroids with HUVEC/MSC, growth % test/control
Test: Anticancer human tumor DMS-114 cell line growth inhibition [AhR];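 also: spheroids exposed to agents for 7 days before readout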;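 as to viability, T/C: 100% = DMSO vehicle control wells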
Conditions: for IC50: curve of first compound; for viability, T/C: stronger effect = lower value
Method in brief: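 Complex tumor spheroids co-cultured with HUVEC and human MSC stroma; AhR antagonists tested in combination with standard-of-care and investigational agents. Top concentration at or near clinical Cmax (else 10 microM), half-log dilutions; growth expressed as percent test/control.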

[1] = second compound 0.1 µM, first compound 0.0316 µM
[2] = second compound 0.1 µM, first compound 0.1 µM
[3] = second compound 0.1 µM, first compound 0.316 µM
[4] = second compound 0.1 µM, first compound 1 µM
[5] = second compound 0.1 µM, first compound 3.16 µM
[6] = second compound 0.1 µM, first compound 10 µM
[7] = second compound 0.316 µM, first compound 0.0316 µM
[8] = second compound 0.316 µM, first compound 0.1 µM
[9] = second compound 0.316 µM, first compound 0.316 µM
[10] = second compound 0.316 µM, first compound 1 µM
[11] = second compound 0.316 µM, first compound 3.16 µM
[12] = second compound 0.316 µM, first compound 10 µM
[13] = second compound 1 µM, first compound 0.0316 µM
[14] = second compound 1 µM, first compound 0.1 µM
[15] = second compound 1 µM, first compound 0.316 µM
[16] = second compound 1 µM, first compound 1 µM
[17] = second compound 1 µM, first compound 3.16 µM
[18] = second compound 1 µM, first compound 10 µM
[19] = second compound 3.16 µM, first compound 0.0316 µM
[20] = second compound 3.16 µM, first compound 0.1 µM
[21] = second compound 3.16 µM, first compound 0.316 µM
[22] = second compound 3.16 µM, first compound 1 µM
[23] = second compound 3.16 µM, first compound 3.16 µM
[24] = second compound 3.16 µM, first compound 10 µM
[25] = second compound 10 µM, first compound 0.0316 µM
[26] = second compound 10 µM, first compound 0.1 µM
[27] = second compound 10 µM, first compound 0.316 µM
[28] = second compound 10 µM, first compound 1 µM
[29] = second compound 10 µM, first compound 3.16 µM
[30] = second compound 10 µM, first compound 10 µM

| Compound | IC50 (second compound 0.1 µM) [nM] | IC50 (second compound 0.316 µM) [nM] | IC50 (second compound 1 µM) [nM] | IC50 (second compound 3.16 µM) [nM] | IC50 (second compound 10 µM) [nM] | viability, T/C [1] [%] | viability, T/C [2] [%] | viability, T/C [3] [%] | viability, T/C [4] [%] | viability, T/C [5] [%] | viability, T/C [6] [%] | viability, T/C [7] [%] | viability, T/C [8] [%] | viability, T/C [9] [%] | viability, T/C [10] [%] | viability, T/C [11] [%] | viability, T/C [12] [%] | viability, T/C [13] [%] | viability, T/C [14] [%] | viability, T/C [15] [%] | other results |
| --- | --- | --- | --- | --- | --- | --- | --- | --- | --- | --- | --- | --- | --- | --- | --- | --- | --- | --- | --- | --- | --- |
| O=C(c1cc(Cc2n[nH]c(=O)c3ccccc23)ccc1F)N1CCN(C(=O)C2CC2)CC1 + Cc1ccccc1N=Nc1ccc(NC(=O)c2ccnn2C)c(C)c1 | > 10000 | > 10000 | > 10000 | > 10000 | > 10000 | 109 | 107 | 103 | 111 | 110 | 97.5 | 122 | 109 | 112 | 105 | 97.9 | 94.7 | 113 | 95.8 | 111 | viability, T/C [16]: 105%; viability, T/C [17]: 102%; viability, T/C [18]: 105%; viability, T/C [19]: 105%; viability, T/C [20]: 111%; viability, T/C [21]: 94.7%; viability, T/C [22]: 102%; viability, T/C [23]: 94.2%; viability, T/C [24]: 103%; viability, T/C [25]: 87.2%; viability, T/C [26]: 103%; viability, T/C [27]: 87.2%; viability, T/C [28]: 91.2%; viability, T/C [29]: 88.3%; viability, T/C [30]: 81% |
| Nc1ccn(C2OC(CO)C(O)C2(F)F)c(=O)n1 (stereo not given) + CC(CO)NC(=O)c1cc(-c2ccc(Cl)cc2)nn(-c2cnn(C)c2)c1=O | < 31.6 | < 31.6 | < 31.6 | < 31.6 | < 31.6 | 12.1 | 11.5 | 11.5 | 11.7 | 11.6 | 10.9 | 11.8 | 11.9 | 13 | 10.9 | 11.6 | 12.8 | 12.6 | 14.1 | 14.4 | viability, T/C [16]: 12.3%; viability, T/C [17]: 10.6%; viability, T/C [18]: 12.6%; viability, T/C [19]: 10.6%; viability, T/C [20]: 13.3%; viability, T/C [21]: 12.9%; viability, T/C [22]: 10.6%; viability, T/C [23]: 11.2%; viability, T/C [24]: 11.1%; viability, T/C [25]: 11.6%; viability, T/C [26]: 11.8%; viability, T/C [27]: 12.7%; viability, T/C [28]: 11.3%; viability, T/C [29]: 12.7%; viability, T/C [30]: 11.9% |
| O=C(C=Cc1cccc(S(=O)(=O)Nc2ccccc2)c1)NO + Cc1ccccc1N=Nc1ccc(NC(=O)c2ccnn2C)c(C)c1 | 1850 | 1720 | 1750 | 1660 | 1670 | 101 | 101 | 96.1 | 74.5 | 27.4 | 30.3 | 96.6 | 95.2 | 101 | 68.8 | 30.1 | 27.4 | 99 | 102 | 94.7 | viability, T/C [16]: 71.1%; viability, T/C [17]: 26.4%; viability, T/C [18]: 29.1%; viability, T/C [19]: 101%; viability, T/C [20]: 97.5%; viability, T/C [21]: 91.2%; viability, T/C [22]: 66%; viability, T/C [23]: 28.7%; viability, T/C [24]: 28.7%; viability, T/C [25]: 88.7%; viability, T/C [26]: 96.1%; viability, T/C [27]: 86.5%; viability, T/C [28]: 65.8%; viability, T/C [29]: 29.5%; viability, T/C [30]: 29.9% |
| COc1cccc2c1C(=O)c1c(O)c3c(c(O)c1C2=O)CC(O)(C(=O)CO)CC3OC1CC(N)C(O)C(C)O1 (stereo not given) + CC(CO)NC(=O)c1cc(-c2ccc(Cl)cc2)nn(-c2cnn(C)c2)c1=O | < 31.6 | 34 | < 31.6 | < 31.6 | < 31.6 | 40.4 | 34.1 | 8.85 | 1.01 | 0.27 | 0.6 | 51.2 | 31.4 | 8.15 | 0.97 | 0.59 | 0.6 | 48.8 | 33.5 | 10.3 | viability, T/C [16]: 0.95%; viability, T/C [17]: 0.33%; viability, T/C [18]: 0.54%; viability, T/C [19]: 43.9%; viability, T/C [20]: 35.4%; viability, T/C [21]: 9.19%; viability, T/C [22]: 0.92%; viability, T/C [23]: 1.14%; viability, T/C [24]: 0.73%; viability, T/C [25]: 43.4%; viability, T/C [26]: 27.3%; viability, T/C [27]: 9.28%; viability, T/C [28]: 0.38%; viability, T/C [29]: 0.32%; viability, T/C [30]: 0.4% |
